Results reported in patent US6376169B1, “Method for diagnosing a vascular condition” (Queens University at Kingston, priority 1998, dated 2002).

Test system: MDA-MB-231 cells
Assay: In vitro invasion of MDA-MB-231 cells through Matrigel
Format: cell-based, human
Conditions: 1% O2 + 30% CO
Description: In vitro invasion assay. An assay which employs reconstituted basement membrane (Matrigel; Collaborative Biomedical Products, Bedford, Mass.) as the substrate for invasion was used to determine the effect of hypoxia on the invasiveness of tumor cells. Costar Transwell inserts (6.5 mm diameter polycarbonate membrane, 8 μm pore; Corning Costar Corp., Cambridge, Mass.) were coated with 100 μl of a 1 mg/ml solution of Matrigel diluted in cold serum-free culture medium, placed in the wells of a 24-well tissue culture plate and allowed to air-dry for 12 h in a laminar flow cabinet. After reconstituting the Matrigel by incubating for 1 h with 100 μl of serum-free medium, 5.0×10^4 cells in 100 μl aliquots of serum-containing medium were added to the Transwells. Following a 24-h incubation under either 20% or 1% O2 in the absence or presence of 10 μg/ml blocking anti-uPAR antibody (3936), or under 1% O2+30% CO (to assess the role of a heme protein on invasion), cells on the surface of the Matrigel-coated polycarbonate membrane (non-invading cells) were removed by scraping with a cotton swab. […] The invasion index' was then determined by counting, under a microscope, the total number of stained cells in the underside of the polycarbonate membranes.

## [C-]#[O+] [carbon monoxide]
  effect on hypoxia-mediated increase in invasiveness: completely abrogated
